According to PMC9781652, “Dinuclear Iron Complexes of Iminopyridine-Based Ligands as Selective Cytotoxins for Tumor Cells and Inhibitors of Cancer Cell Migration” (Pharmaceutics, 2022):

What was measured:
[1] = test system: NCI-H460 human lung carcinoma cells; assay: Cell proliferation assay (MTT), NCI-H460; assay type: cell-based; settings: for IC50: 72 h exposure, MTT, mean ± SE; for SI NCI-H460 (selectivity index): ratio IC50 CCD-18Co / IC50 NCI-H460
Description: (§1) Cells were seeded into 96-well plates at densities of 1500 cells per well for OVCAR-8, 1900 for NCI-H460, and 4000 for CCD-18Co. After 24 h of incubation, they were treated for 72 h with different concentrations of the compounds (concentration range: 0.01 to 6 μM for OVCAR-8; 0.05 to 2 μM for NCI-H460; and 0.07 to 70 μM for CCD-18Co cells). When indicated, cells were also incubated with 30 µM of the ROS scavenger Manganese (III) 5,10,15,20-tetrakis (4-benzoic acid) porphyrin (MnTBAP) (Calbiochem, San Diego, CA, USA). Cell viability was measured using the MTT assay as previously described. The IC50 value corresponds to the concentration of the assayed compound that is required to inhibit the cell proliferation by 50%, and was calculated by linear interpolation from the obtained growth curves. All data are reported as the mean ± standard error (SE) calculated from at least three independent experiments with three replicates in each.

[2] = test system: OVCAR-8 human ovarian carcinoma cells; assay: Cell proliferation assay (MTT), OVCAR-8; assay type: cell-based; settings: for IC50: 72 h exposure, MTT, mean ± SE; for SI OVCAR-8 (selectivity index): ratio IC50 CCD-18Co / IC50 OVCAR-8
Description: as §1

[3] = test system: CCD-18Co human colon fibroblasts; assay: Cell proliferation assay (MTT), non-tumor CCD-18Co; assay type: cell-based; settings: non-tumor cells, 72 h exposure, mean ± SE
Description: as §1

[4] = test system: supercoiled pUC18 DNA; assay: DNA interaction analysis by agarose gel electrophoresis; assay type: biochemical; settings: 24 h, 37 °C
Description: The interaction of DNA with the compounds was monitored in an agarose gel electrophoresis as previously described. […] Two other samples were included in the assays: a sample of pUC18 DNA alone as negative control and a sample of pUC18 DNA with 5 µg/mL cisplatin for comparison purposes. […] Gels were stained with ethidium bromide (1 µg/mL in TBE) for 15 min and DNA bands were visualized under UV light.

Row | SMILES | IC50 [1] | SI NCI-H460 (selectivity index) [1] | IC50 [2] | SI OVCAR-8 (selectivity index) [2] | IC50 [3] | Interaction with pUC18 DNA in the absence of H2O2 ([4]; 25-100 µM compounds (cisplatin 5 µg/mL), no H2O2) | Effect on pUC18 DNA in the presence of H2O2 at the highest concentrations ([4]; highest concentrations, with H2O2)
1 | N.N.O=C([O-])C1(C(=O)[O-])CCC1.[Pt+2] [Carboplatin, carboplatin, reference compound] | 12.8 ± 2.23 µM | 18.8 | 110 ± 4.2 µM | 2.1 | 240 ± 25.2 µM | – | –
2 | N.N.[Cl][Pt][Cl] [Cisplatin, cisplatin, reference compound] | 1.01 ± 0.14 µM | – | 6.91 ± 1.21 µM | 4.5 | 31.2 ± 5.76 µM | migration of the CCC form decreases until it co-migrates with the OC form | –
3 | CC#N.CC#N.CC#N.CC#N.Cc1cc(N=Cc2ccccn2)c2c(c1)C1CC(O2)Oc2c(N=Cc3ccccn3)cc(C)cc21.Cc1cc(N=Cc2ccccn2)c2c(c1)C1CC(O2)Oc2c(N=Cc3ccccn3)cc(C)cc21.F[B-](F)(F)F.F[B-](F)(F)F.F[B-](F)(F)F.F[B-](F)(F)F.[Fe+2].[Fe+2] [Compound 7, [Fe21_2(CH3CN)4](BF4)4] | 0.43 ± 0.03 µM | 18.1 | 1.39 ± 0.14 µM | 5.6 | 7.78 ± 5.67 µM | – | –
4 | CC#N.CC#N.CC#N.CC#N.Cc1cc(N=Cc2cccc(Br)n2)c2c(c1)C1CC(O2)Oc2c(N=Cc3cccc(Br)n3)cc(C)cc21.Cc1cc(N=Cc2cccc(Br)n2)c2c(c1)C1CC(O2)Oc2c(N=Cc3cccc(Br)n3)cc(C)cc21.F[B-](F)(F)F.F[B-](F)(F)F.F[B-](F)(F)F.F[B-](F)(F)F.[Fe+2].[Fe+2] [Compound 8, [Fe22_2(CH3CN)4](BF4)4] | 0.48 ± 0.13 µM | 14.6 | 1.27 ± 0.39 µM | 5.5 | 7 ± 3.43 µM | – | total DNA degradation
